Consider 2 molecules from PMC5090206, “Fluselenamyl: A Novel Benzoselenazole Derivative for PET Detection of Amyloid Plaques (Aβ) in Alzheimer’s Disease” (Scientific Reports, 2016).

Series [1] addresses T1, Aβ1–42 fibrils (Homo sapiens, UniProt P05067).
T1 construct: Commercially available amyloid peptide Aβ1-42; purchased
Put plainly: Saturation binding of [18F]-9 with Aβ1–42 fibrils. The protocol: For assessing the ability of [^18F]-9 to bind Aβ plaques; binding assays with either AD homogenates or preformed Aβ1–42 aggregates were performed in 30 mM Tris, pH 7.4 buffer supplemented with 0.1% BSA[39]. Nonspecific binding was determined in the presence of 5 (1 μM) as a competitor.
(§1) Scientific Reports Version of August 4, 2016
Binding assays were performed using previously described methods.11 Briefly, a fixed concentration (0.25 µM/well) of Aβ1–42 fibrils was incubated for 1 h at 37 °C with increasing concentrations of [18F]-9 (0.1 nM-15 nM) in 30 mM Tris-HCl pH 7.4, 0.1% BSA in a reaction volume of 150 µl. […] The exact hot:cold ([18F]-9 : 5) ratio was measured in each experiment by counting an aliquot of a sample (2 µl) of the radioligand preparation in a scintillation counter. Binding of [18F]-9 to human brain homogenates was assessed by incubating samples of insoluble fraction (1.25 µg insoluble protein/well) from AD subjects, with increasing concentrations of [18F]-9 (0.1nM-18 nM) for 1 h at 37 °C. Nonspecific binding was determined in parallel experiments in the presence of 5 (1 µM) as a competitor. […] Glass fiber filters containing the bound ligand were mixed with Optiphase Supermix scintillation cocktail (150µl; PerkinElmer) and counted immediately. […]
Bmax values were calculated in pmol/gram wet weight of brain tissue. […]

Series [2] can be described thus: Lipophilicity (log P). The note with it: octanol/water. The series is classed as physicochemical.
The target in series [3] is Aβ plaques (Homo sapiens, UniProt P05067). Put plainly: Histological staining of human AD brain tissue sections. The protocol: To further assess ability of the 5 to label Aβ plaques in human brain, staining experiments were also performed with postmortem tissues from clinically-characterized AD patients[35][36] As a positive control, a highly specific anti-Aβ antibody (10D5, Eli Lilly, Indianapolis, IN) was used to ascertain the presence of Aβ plaques (Fig. 4A), using well-established procedures for assessment of Aβ plaques in postmortem brain[37]. […] Noticeably, 5 also indicated proficient and distinct labeling of plaque and leptomeningeal vessels (cerebral amyloid angiopathy; CAA) (Fig. 4B). […] This high specificity of 5 for Aβ could be attributed to presence of a benzoselenazole ring within Fluselenamyl. Overall, the ability and sensitivity of 5 to detect diffuse plaques and specificity for AD could represent an important advancement to enable PET imaging of mildly demented individuals, prior to onset of symptoms.
Aβ plaques, sequence (P05067 672-711 limits assumed): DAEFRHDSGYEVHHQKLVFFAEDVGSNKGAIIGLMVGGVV
as §1
µm) were cut in the coronal plane on a freezing sliding microtome and stored at -20°C. 7,8 Tissue was stained as free-floating sections. Prior to staining, tissue sections were permeabilized with PBS-Tritron-X-100 (0.25%) for 30 minutes, and then blocked with 1% non-fat dry milk in PBS-Ttiton-X-100 for 60 minutes.
Hippocampus tissue sections of APP+/-/PS1+/- and age-matched control BL/6 (WT, SI Figure 3) were incubated with fluorescent molecule 5 (100 nM dissolved in 1% ethanol in PBS) for 60 minutes, and washed 3-times with PBS-Triton-X-100.9 Thereafter, tissue sections were incubated with mouse-anti-Aβ (mHJ3.4) 7 that was directly conjugated to Alexa 568 for 90 minutes and washed 3-times with PBS-Triton-X-100.
Tissue sections were mounted onto SuperFrost Plus slides, dried overnight at room temperature, and then sealed with Fluoromount G (Southern Biotech, Birmingham, AL). […]
other neurodegenerative diseases (SI, Figure 4A & 4B). Sections were visualized, processed, and analyzed using a Pascal confocal microscope. […]

T1 sequence (P05067 672-713 limits assumed): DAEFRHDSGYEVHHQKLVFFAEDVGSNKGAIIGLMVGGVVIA

With `CN(C)c1ncc(/C=C\c2nc3cc(OCC[18F])ccc3[se]2)cn1` [[^18F]-9], the Bmax in series [1] was found to be 1.3 pmol/nmol. Moreover, the Kd (as a rule, a measure of binding affinity in units of concentration) in series [1] (30 mM Tris pH 7.4, 0.1% BSA, one-site model) came out at 1.6 nM. The logP (commonly the decadic logarithm of the partition coefficient of the neutral form, usually between octanol and water) in series [2] was found to be 1.28.
In the case of `CN(C)c1ncc(/C=C\c2nc3cc(OCCF)ccc3[se]2)cn1` [compound 5, (Z)-5-(2-(5-(2-fluoroethoxy)benzo[d][1,3]selenazol-2-yl)vinyl)-N,N-dimethylpyrimidin-2-amine], the “labeling of Aβ plaques in frontal lobe tissue sections” value in series [3] (2 μM, person with AD) is recorded as “strikingly distinct labeling of Aβ plaques”. Moreover, in series [3] (AD frontal lobe sections), the “staining of diffuse plaques” value is given as “labeling of numerous diffuse Aβ plaques”.
